Results as given in patent publication US20220117958A1, “COMPOSITIONS AND METHODS FOR INHIBITING ACSS2” (THE TRUSTEES OF THE UNIVERSITY OF PENNSYLVANIA, priority 2018, published 2022).
Converted amounts (≈) assume the structure as drawn. “And” between values parts separate entries of the source, which are not always exact repeats. Identical values can stand only once. Like-named read-outs stand apart in the source and are kept apart here. Marks after values point to notes of the source that are not given here.

Assays:
[1] = Turbidity-based aqueous solubility; assay type: physicochemical; conditions: aqueous solution (composition not given), kinetic from dmso stock, read-out: highest soluble concentration
Text: (§1) Table 20 provides results of in vitro and in vivo pharmacokinetics performed for each of the represented compounds.

[2] = Protein binding via Rapid Equilibrium Dialysis - plasma; assay type: in vitro ADME; conditions: Rat (SD) plasma, 2 μM
Text: as §1

[3] = Microsomal stability assay (half-life), human; assay type: in vitro ADME; conditions: Human microsomes, read-out: Microsomal stability T1/2
Text: as §1

[4] = Microsomal stability assay (half-life), mouse; assay type: in vitro ADME; conditions: Mouse (CD1) microsomes, read-out: Microsomal stability T1/2
Text: as §1

[5] = Microsomal stability assay (half-life), rat; assay type: in vitro ADME; conditions: Rat (SD) microsomes, read-out: Microsomal stability T1/2
Text: as §1

[6] = In vivo PK, oral gavage, plasma; parameters: species or system Rat (SD); conditions: for Plasma concentration, mean: Rat (SD), BQL = below quantitation limit (1.00 ng/mL); for Plasma concentration, mean / Plasma concentration, individual animal: PO 5 mg/kg
Text: as §1
(§2) Tables 4 and 5 depict the summary of rat plasma sample concentrations after administration of ADG I-204. FIG. 6 provides a summary of rat plasma and brain concentrations.

[7] = In vivo PK, IV dose, plasma; parameters: species or system Rat (SD); conditions: for Plasma concentration, mean / Plasma concentration, individual animal: IV 1 mg/kg
Text: as §1, §2

[8] = In vivo PK, IV dose, Terminal - brain (brain availability); parameters: species or system Rat (SD); conditions: for Brain concentration, mean / Brain concentration, individual animal: IV 1 mg/kg
Experimental: Table 3 and FIG. 5 depict the brain availability of ADG I-204, ADG I-205, ADG I-206, and ADG I-207 after IV administration of 1 mg/kg dose.

H3K9ac = experiment: Western blot, differentiated CAD cell lysates, H3K9ac levels; assay type: cell-based; conditions: differentiated CAD cells, DMSO = 100.00%
Text: as §1

[9] = In vivo PK, oral gavage, plasma; parameters: species or system Rat (SD); conditions: Rat, PO 5 mg/kg, 24.0 hr; BQL limit 1.00 ng/mL; listed as AUG I-207, 5 mg/kg

solubility [1]: 5 µM (≈ 2.43 µg/mL)
Protein binding, plasma: % Protein free [2]: 0.9428 % Protein free
half-life at 2 μM [3]: 18.7 min
half-life at 2 μM [4]: 5.5 min
half-life at 2 μM [5]: 5.5 min
Plasma concentration, mean ([6]; 0.25 hr): BQL
Plasma concentration, mean ([6]; 0.5 hr): BQL
Plasma concentration, mean ([6]; 1 hr): BQL
Plasma concentration, mean ([6]; 4 hr): BQL
Plasma concentration, mean ([6]; 8 hr): BQL
Plasma concentration, mean ([6]; 24 hr): BQL
Plasma concentration, individual animal ([6]; Rat, 0.250 hr, BQL limit 1.00 ng/mL): BQL
Plasma concentration, individual animal ([6]; Rat, 0.500 hr, BQL limit 1.00 ng/mL): BQL
Plasma concentration, individual animal ([6]; Rat, 1.00 hr, BQL limit 1.00 ng/mL): BQL
Plasma concentration, individual animal ([6]; Rat, 4.00 hr, BQL limit 1.00 ng/mL): BQL
Plasma concentration, individual animal ([6]; Rat, 8.00 hr, BQL limit 1.00 ng/mL): BQL
concentration at 24 h ([6]; SD, rat, plasma, po, 5 mg/kg, Rat, 24.0 hr, BQL limit 1.00 ng/mL, read-out: Plasma concentration, individual animal): 1.18 ng/mL
Plasma concentration, mean ([7]; Rat (SD), 0.083 hr, terminal, listed as ADG I-207, 1 mg/kg): 1660*** ng/mL
Plasma concentration, mean ([7]; Rat (SD), 1 hr, terminal, listed as ADG I-207, 1 mg/kg): 55 ng/mL
Plasma concentration, mean ([7]; Rat (SD), 4 hr, terminal, listed as ADG I-207, 1 mg/kg): 1 ng/mL
Plasma concentration, mean ([7]; Rat (SD), 8 hr, terminal, listed as ADG I-207, 1 mg/kg): 1 ng/mL
Plasma concentration, mean ([7]; Rat (SD), 24 hr, terminal, BQL limit 1.00 ng/mL (ADG I-205: 2.00 ng/mL)): BQL
Plasma concentration, individual animal ([7]; Rat, 0.0830 hr, terminal, third animal received only 70% of the test article, listed as ADG I-207, 1 mg/kg): 1640 ng/mL and 2230 ng/mL and 1110 ng/mL
Plasma concentration, individual animal ([7]; Rat, 1.00 hr, terminal, listed as ADG I-207, 1 mg/kg): 70.3 ng/mL and 27.3 ng/mL and 65.8 ng/mL
Plasma concentration, individual animal ([7]; Rat, 4.00 hr, terminal, BQL limit 1.00 ng/mL (ADG I-205: 2.00 ng/mL), listed as ADG I-207, 1 mg/kg): BQL
Plasma concentration, individual animal ([7]; Rat, 8.00 hr, terminal, BQL limit 1.00 ng/mL (ADG I-205: 2.00 ng/mL), listed as ADG I-207, 1 mg/kg): BQL and 1.09 ng/mL
Plasma concentration, individual animal ([7]; Rat, 24.0 hr, terminal, BQL limit 1.00 ng/mL (ADG I-205: 2.00 ng/mL)): BQL
concentration at 0.083 h ([7]; SD, rat, plasma, iv, 1 mg/kg, Rat (SD), 0.083 hr, terminal, read-out: Plasma concentration, mean): 1660 ng/mL
concentration at 0.5 h ([7]; SD, rat, plasma, iv, 1 mg/kg, Rat (SD), 0.500 hr, not a terminal time point (animals 4, 5 and 6)): 608 ng/mL
concentration at 1 h ([7]; SD, rat, plasma, iv, 1 mg/kg, Rat (SD), 1 hr, terminal, read-out: Plasma concentration, mean): 54.5 ng/mL
concentration at 4 h ([7]; SD, rat, plasma, iv, 1 mg/kg, Rat (SD), 4 hr, terminal, read-out: Plasma concentration, mean): 1.37 ng/mL
concentration at 8 h ([7]; SD, rat, plasma, iv, 1 mg/kg, Rat (SD), 8 hr, terminal, read-out: Plasma concentration, mean): 1.05 ng/mL
concentration at 4 h ([7]; SD, rat, plasma, iv, 1 mg/kg, Rat, 4.00 hr, terminal, BQL limit 1.00 ng/mL (ADG I-205: 2.00 ng/mL), read-out: Plasma concentration, individual animal): 1.37 ng/mL
concentration at 8 h ([7]; SD, rat, plasma, iv, 1 mg/kg, Rat, 8.00 hr, terminal, BQL limit 1.00 ng/mL (ADG I-205: 2.00 ng/mL), read-out: Plasma concentration, individual animal): 1 ng/mL
Brain concentration, mean ([8]; Rat (SD), 1 hr, listed as ADG I-207, 1 mg/kg): 51 ng/g
Brain concentration, mean ([8]; Rat (SD), 4 hr, BQL limit 10.0 ng/g (204, 206), 20.0 ng/g (205, 207)): BQL
Brain concentration, mean ([8]; Rat (SD), 8 hr, BQL limit 10.0 ng/g (204, 206), 20.0 ng/g (205, 207)): BQL
Brain concentration, mean ([8]; Rat (SD), 24 hr, BQL limit 10.0 ng/g (204, 206), 20.0 ng/g (205, 207)): BQL
Brain concentration, individual animal ([8]; Rat, 0.0830 hr, third animal received only 70% of the test article, listed as ADG I-207, 1 mg/kg): 204 ng/g and 253 ng/g and 119*** ng/g
Brain concentration, individual animal ([8]; Rat, 1.00 hr, listed as ADG I-207, 1 mg/kg): 39.8 ng/g and 58.9 ng/g
Brain concentration, individual animal ([8]; Rat, 4.00 hr, BQL limit 10.0 ng/g (204, 206), 20.0 ng/g (205, 207)): BQL
Brain concentration, individual animal ([8]; Rat, 8.00 hr, BQL limit 10.0 ng/g (204, 206), 20.0 ng/g (205, 207)): BQL
Brain concentration, individual animal ([8]; Rat, 24.0 hr, BQL limit 10.0 ng/g (204, 206), 20.0 ng/g (205, 207)): BQL
concentration at 0.083 h ([8]; SD, rat, brain, iv, 1 mg/kg, Rat (SD), 0.083 hr): 192 ng/g
concentration at 1 h ([8]; SD, rat, brain, iv, 1 mg/kg, Rat (SD), 1 hr, read-out: Brain concentration, mean): 50.8 ng/g
concentration at 1 h ([8]; SD, rat, brain, iv, 1 mg/kg, Rat, 1.00 hr, read-out: Brain concentration, individual animal): 53.6 ng/g
Plasma concentration, individual animal [9]: BQL
Structure (SMILES): O=C(Nc1ccc2nc(-c3cccs3)c(-c3cccs3)nc2c1)NC12CC3CC(CC(C3)C1)C2 [ADG-207, 1-((1S,3s)-adamantan-1-yl)-3-(2,3-di(thiophen-2-yl)quinoxalin-6-yl)urea]
Plasma concentration, individual animal ([7]; Rat, 0.500 hr, not terminal (animals 4, 5 and 6), listed as ADG I-207, 1 mg/kg): 1560** ng/mL and 93.3 ng/mL and 170 ng/mL
H3K9ac levels normalized to H3 and DMSO control (H3K9ac; 1 uM): 57.45%
H3K9ac levels normalized to H3 and DMSO control (H3K9ac; 5 uM): 63.69%
H3K9ac levels normalized to H3 and DMSO control (H3K9ac; 10 uM): 72.97%
H3K9ac levels normalized to H3 and DMSO control (H3K9ac; 20 uM): 70.92%
H3K9ac levels normalized to H3 and DMSO control (H3K9ac; 50 uM): 116.85%
H3K9ac levels normalized to H3 and DMSO control (H3K9ac; 100 uM): 107.80%
